Test results published in patent US4607023A, “Natriuretic” (L'Institut de Recherches Cliniques de Montreal, priority 1983, dated 1986).
“Also recorded” adds a separate entry of the source. Bridge positions count the residues as written; N and C are the ends.

Experiments:
[1] = tested on: female Sprague-Dawley rats; test: Natriuretic and diuretic bioassay: urinary Na+ excretion after i.v. bolus in anesthetized rats; type: in vivo, rat; conditions: for natriuretic activity, comparison in words (FIG. 12): 15 to 1350 pmoles i.v. bolus, change of Na+ excretion per 20 min, at least four rats per dose
Procedure: Diuretic and natriuretic activities of the ANFs are determined by the method of Garcia et al., (1982) Experientia 38, 1071-1073 and of Thibault et al., (1983) Hypertension 5, (Suppl. I), 75-80, both cited above, in female Sprague-Dawley rats (180-200 g) anesthetized with pentobarbital (60 mg/kg i.p.) equipped with a bladder catheter and an intrajugular vein catheter. The animals receive an infusion of 5% dextrose (3 ml/hr) for 45 minutes before the assay and during the evaluation period. Urine is collected in pre-weighed vials for 20 minute intervals. Following a basal collection period the ANFs to be assayed are injected as a bolus of 1 ml in Krebs solution pH 7.4 via the intrajugular vein catheter, urine is collected for a 20 minute period, and sodium concentrations are determined by flame photometry. Results are expressed as μEq of Na^+ for the collection period of 20 minutes from which the sodium excretion of the control period has been subtracted (ΔμEq Na^+ /20 min), and specific activity is defined as ΔμEq Na^+ /20 min/mg of protein. Protein is measured by the Bradford assay, see Spector, T. (1978) Anal. Biochem. 86, 142-146, with bovine albumin as a standard except for substantially pure ANFs where the amount of peptide is estimated from the amino acid sequencer.
Generally, in the purification procedures described above, unless otherwise specified all procedures are carried out at 4° C. At the end of each chromatographic step the material is lyophilized and then stored at -20° C. until used. For small volume (<6 ml) lyophilization is carried out in polystyrene tubes (1.5×7 cm) in a Savant Speed Vac concentrator. Larger volumes in the first steps are lyophilized in glass flasks. For subsequent steps, samples are dissolved in 1 to 3 ml of 0.01M ammonium acetate, pH 5.0, and aliquots are taken for the biological assay (Garcia et al., (1982) Experientia 38, 1071-1073, cited above) which are done in duplicate.
Generally, in the purification procedures discussed above, unless otherwise specified all procedures were carried out at 4° C. At the end of each chromatographic step the material was lyophilized and then stored at -20° C. until used. For small volume (<6 ml) lyophilization was carried out in polystyrene tubes (1.5×7 cm) in a Savant Speed Vac concentrator. Larger volumes in the first steps were lyophilized in glass flasks. For subsequent steps, samples were dissolved in 1 to 3 ml of 0.01M ammonium acetate, pH 5.0. Aliquots were taken for the biological assay (Garcia et al. (1982) Experientia 38, 1071-1073) which were done in duplicate. Proteins were measured by the Bradford assay (Spector, T. (1978) Anal. Biochem. 86, 142-146) with bovine albumin as a standard except in the last step where the amount of peptides was estimated from the amino acid sequencer.
The natriuretic activities of native ANF(2-33), ANF(3-33) and synthetic ANF(8-33) acid or amide forms were determined by a biological assay (Garcia, R., Cantin, M., Thibault, G., Ong, H. and Genest, J. (1982) Experientia 38: 1071-1073; Thibault, G., Garcia, R., Cantin, M., and Genest, J. (1983) Hypertension 5 (Suppl. I): 75-83), both references cited above. Female Sprague-Dawley rats (180-200 g) were used as bioassay animals. They were anesthetized with pentobarbital (60 mg/kg i.p.) and a bladder catheter and an intrajugular vein catheter were installed. The animals received a 5% (W/V) dextrose infusion (2.1 ml/hr) 30 minutes before the assay and during the evaluation period. Urine was collected in preweighed vials for 20-minute intervals. After a basal collection period, the ANF peptides (native ANF(2-33) or (3-33) or synthetic (8-33) acid or amide forms; 15 to 1350 pmoles) were injected in a bolus injection in 1 ml of Krebs solution, pH 7.4. Each dose was injected in at least four rats. The sodium concentration was measured by a flame photometer. The results are expressed in terms of change of Na^+ excretion per 20 min±SEM.

[2] = tested on: rabbit renal arteries (helical vascular strips); test: Vasorelaxant activity in vitro on norepinephrine-contracted rabbit renal artery strips; type: cell-based; conditions: 0.25 μg peptide added to the bath 5 min before the cumulative NE curve; p<0.01
Procedure: The vasorelaxant activities of the ANFs of this invention are determined in vitro by means of a procedure involving the use of mammalian vascular strips. Briefly, healthy rabbits are anesthetized with sodium pentobarbital (30 mg/kg i.v.), their renal arteries are rapidly excised, fat and connective tissure are trimmed off, and the arterial issue is helically cut. The helical strips thus obtained are mounted between a fixed base and a force displacement transducer, immersed in a bath of continuously oxygenated Krebs solution at 37° C. and pH 7.4, and a tension of 500-700 mg is applied to the strip of arterial tissue. L-Norepinephrine bitartrate (NE) is added to the bath to obtain concentrations of NE ranging from 3.9×10^-6 to […], the contractions elicited by NE are registered on a polygraph, and a cumulative dose-response curve is established. Once a standard curve is reproducible it is repeated five minutes after having added 0.25 μg of the respective ANF to the bath. […]
For each arterial strip a cumulative dose-response curve to NE (L-norepinephrine bitartrate, Sigma Chemicals) ranging from 3.9×10^-6 to 1.6×10^-2 mM was obtained. […] The contraction elicited for each dose of NE is expressed as a percent of the maximum response.
Results are expressed as mean ±SEM. […]

[3] = native peptide peaks after last step, CN μBondapak column, high molecular weight region, rat bioassay

Substance	natriuretic activity, comparison in words (FIG. 12) [1]	specific activity of the material recovered (natriuretic) ([1]; after CN μBondapak reverse phase HPLC, partial inactivation of the peptide)	specific activity (natriuretic) ([1]; material at the Mono S column step, fractions 40 to 44 minutes, low molecular weight region)	diuretic and natriuretic activity, general statements in words ([1]; rat bioassay)	vasorelaxant activity: displacement of the norepinephrine dose-response curve (FIG. 13) [2]	specific activity (natriuretic) [1, 3]
H-Gly-Pro-Arg-Ser-Leu-Arg-Arg-Ser-Ser-Cys-Phe-Gly-Gly-Arg-Ile-Asp-Arg-Ile-Gly-Ala-Gln-Ser-Gly-Leu-Gly-Cys-Asn-Ser-Phe-Arg-Tyr-OH (H-GPRSLRRSSCFGGRIDRIGAQSGLGCNSFRY-OH; disulfide 10-26; ends not checked) [ANF(3-33), native rat atrial natriuretic factor of 31 amino acid residues]	comparable natriuretic activities	84,000 μEq Na^+ excreted/20 min/mg	131,000 μEq of Na^+ excreted/20 min/mg	biologically active	displacing the response to norepinephrine (NE) to the right	
H-Ala-Gly-Pro-Arg-Ser-Leu-Arg-Arg-Ser-Ser-Cys-Phe-Gly-Gly-Arg-Ile-Asp-Arg-Ile-Gly-Ala-Gln-Ser-Gly-Leu-Gly-Cys-Asn-Ser-Phe-Arg-Tyr-OH (H-AGPRSLRRSSCFGGRIDRIGAQSGLGCNSFRY-OH; disulfide 11-27; ends not checked) [ANF(2-33), native rat atrial natriuretic factor of 32 amino acid residues]	slightly higher than that of the above compounds; also recorded: slightly higher than that of the other forms					
H-Leu-Ala-Gly-Pro-Arg-Ser-Leu-Arg-Arg-Ser-Ser-Cys-Phe-Gly-Gly-Arg-Ile-Asp-Arg-Ile-Gly-Ala-Gln-Ser-Gly-Leu-Gly-Cys-Asn-Ser-Phe-Arg-Tyr-OH (H-LAGPRSLRRSSCFGGRIDRIGAQSGLGCNSFRY-OH; disulfide 12-28; ends not checked) [ANF(1-33), native rat atrial natriuretic factor of 33 amino acid residues, disulfide bridge Cys12-Cys28]				biologically active		297,000 μEq of Na^+ excreted/20 min/mg
H-Arg-Arg-Ser-Ser-Cys-Phe-Gly-Gly-Arg-Ile-Asp-Arg-Ile-Gly-Ala-Gln-Ser-Gly-Leu-Gly-Cys-Asn-Ser-Phe-Arg-Tyr-OH (H-RRSSCFGGRIDRIGAQSGLGCNSFRY-OH; disulfide 5-21; ends not checked) [ANF(8-33), native rat atrial natriuretic factor of 26 amino acid residues]				more active than ANF(3-33) or ANF(1-33)		450,000 μEq of Na^+ excreted/20 min/mg
